This note sets out measurements from patent publication US9695174B2, “Inhibitor of breast cancer resistance protein (BCRP)” (Millennium Pharmaceuticals, Inc., priority 2013, dated 2017).

Usually pIC50 stands for −log10 of the IC50, conventionally taken in molar units. As usually defined, the Vss is the apparent volume that relates the amount in the body to the concentration in plasma or blood. A high value points to wide distribution into tissue. Broadly, the Tmax is the time at which the peak concentration occurs. By AUC is commonly meant concentration integrated over time. The low end stands for less exposure, the high end for more exposure. The term half-life denotes how long it takes for the measured level to halve. Low values mean rapid decline, high ones slow decline. Broadly, the Cmax is the peak of the concentration-time curve. In general, IC50 refers to the midpoint of a concentration-inhibition curve.

One series has as its target BCRP efflux transporter (Homo sapiens (Human), UniProt Q9UNQ0). Briefly: Bi-directional transport study in Caco-2 cells, inhibition of BCRP efflux of 3H-estrone-3-sulfate. Here is the method:
To determine potency of compounds on inhibition of transporters, bi-directional transport studies are performed in Caco-2 cells (American Type Culture Collection, Manassas, Va.) at 37° C. in air, according toXia et al. (Expression, localization and functional characteristics of breast cancer resistance protein in Caco-2 cells. Drug Met. Disp., 33 (5): 637-643 (2005)). Prior to each experiment, the confluent cell monolayers on Transwell™ inserts are washed and equilibrated for 30 minutes with transport media (Hank's balanced salt solution (HBSS) containing 10 mM of N-2-hydroxyethyl-piperazine-N′-2-ethanesulfonic acid (HEPES) and 10 mM of glucose, pH 7.4). […] At preset time points, 0.05 mL aliquot of receiving solutions are sampled from the basolateral side (for A-to-B transport) or from the apical side (for B-to-A transport), and replaced immediately with an equal amount of fresh transport media except at the last time point (the end of the incubation). The radioactivity in each sample is measured by 1450 MicroBeta TriLux, a microplate scintillation and luminescence counter (PerkinElmer Life Sciences). Radioactivity (^3H) of the dosing solution is measured and used to calculate the initial donor concentration of the substrate.
(Caco-2 monolayers are a common model of the intestinal barrier.)

Series [1] is described as follows: In vivo pharmacokinetic profile in Sprague-Dawley rats. Here is the method:
Approximately 200 μL of whole blood is collected from the jugular vein catheter of each animal into tubes containing the anticoagulant dipotassium ethylenediaminetetraacetic acid (K2EDTA) and is further processed into plasma at approximately 4° C. […] Pharmacokinetic analysis of the individual plasma concentration data is performed using a nonvalidated program (Phoenix™ WinNonlin®, Version 6.1 [Pharsight Corp (Mountain View, Calif., USA)]).

In the next series the target is CYP2C8 (Homo sapiens (Human), UniProt P10632). Briefly: CYP inhibition in human liver microsomes (amodiaquine). Type of series: in vitro ADME. As to conditions: read-out: CYP inhibition IC50 2C8. Here is the method: (§1) Reactions are initiated by the addition of β-NADPH (2 mM) and MgCl2 (3 mM) in 0.1-M potassium phosphate buffer, pH 7.4. Reactions are incubated for 12 minutes at 37° C., and then terminated by the addition of an equal volume of ACN containing 1-μM carbutamide (IS). The plates are refrigerated at approximately 4° C. for 15 minutes and then centrifuged in order to pellet the precipitated proteins. The supernatants are analyzed by LC/MS/MS for the amount of metabolite formed by each CYP isozyme.
Chain of CYP2C8 (P10632 whole entry): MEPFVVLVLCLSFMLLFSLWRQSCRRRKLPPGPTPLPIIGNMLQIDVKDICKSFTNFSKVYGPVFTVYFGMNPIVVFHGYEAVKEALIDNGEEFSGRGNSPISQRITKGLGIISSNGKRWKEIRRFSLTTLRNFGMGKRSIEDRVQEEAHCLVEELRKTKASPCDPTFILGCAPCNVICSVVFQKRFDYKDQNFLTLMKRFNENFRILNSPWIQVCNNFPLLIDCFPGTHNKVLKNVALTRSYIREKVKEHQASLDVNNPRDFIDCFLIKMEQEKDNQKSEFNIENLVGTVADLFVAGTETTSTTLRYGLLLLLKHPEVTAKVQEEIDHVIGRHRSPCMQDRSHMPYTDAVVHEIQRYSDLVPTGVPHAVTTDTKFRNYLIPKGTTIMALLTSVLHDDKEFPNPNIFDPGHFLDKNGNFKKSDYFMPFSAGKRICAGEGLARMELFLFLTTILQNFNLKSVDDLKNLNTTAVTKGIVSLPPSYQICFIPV
(Liver microsomes are vesicles of endoplasmic reticulum, rich in cytochrome P450 enzymes.)

In the next series the target is CYP2C9 (Homo sapiens (Human), UniProt P11712). The series can be described thus: CYP inhibition in human liver microsomes (diclofenac). Type of series: in vitro ADME. Particulars: read-out: CYP inhibition IC50 2C9. Here is the method: as §1
Chain of CYP2C9 (P11712 whole entry): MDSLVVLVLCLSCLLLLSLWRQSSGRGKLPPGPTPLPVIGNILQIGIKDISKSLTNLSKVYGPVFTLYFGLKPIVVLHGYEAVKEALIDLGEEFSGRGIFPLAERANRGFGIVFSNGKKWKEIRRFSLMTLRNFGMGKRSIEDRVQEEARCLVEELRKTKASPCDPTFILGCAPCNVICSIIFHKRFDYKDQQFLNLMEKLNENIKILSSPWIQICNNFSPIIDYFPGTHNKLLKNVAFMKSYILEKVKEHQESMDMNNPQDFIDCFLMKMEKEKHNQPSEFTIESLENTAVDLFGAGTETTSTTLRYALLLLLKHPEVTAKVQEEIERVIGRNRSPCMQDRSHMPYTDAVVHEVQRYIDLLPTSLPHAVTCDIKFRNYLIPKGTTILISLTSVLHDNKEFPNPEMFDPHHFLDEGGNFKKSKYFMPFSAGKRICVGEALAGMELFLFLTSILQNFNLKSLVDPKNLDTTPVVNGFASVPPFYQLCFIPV
In a further series the target is CYP2D6 (Homo sapiens (Human), UniProt P10635). The series can be described thus: CYP inhibition in human liver microsomes (dextromethorphan). Type of series: in vitro ADME. Particulars: read-out: CYP inhibition IC50 2D6. Here is the method: as §1
Chain of CYP2D6 (P10635 whole entry): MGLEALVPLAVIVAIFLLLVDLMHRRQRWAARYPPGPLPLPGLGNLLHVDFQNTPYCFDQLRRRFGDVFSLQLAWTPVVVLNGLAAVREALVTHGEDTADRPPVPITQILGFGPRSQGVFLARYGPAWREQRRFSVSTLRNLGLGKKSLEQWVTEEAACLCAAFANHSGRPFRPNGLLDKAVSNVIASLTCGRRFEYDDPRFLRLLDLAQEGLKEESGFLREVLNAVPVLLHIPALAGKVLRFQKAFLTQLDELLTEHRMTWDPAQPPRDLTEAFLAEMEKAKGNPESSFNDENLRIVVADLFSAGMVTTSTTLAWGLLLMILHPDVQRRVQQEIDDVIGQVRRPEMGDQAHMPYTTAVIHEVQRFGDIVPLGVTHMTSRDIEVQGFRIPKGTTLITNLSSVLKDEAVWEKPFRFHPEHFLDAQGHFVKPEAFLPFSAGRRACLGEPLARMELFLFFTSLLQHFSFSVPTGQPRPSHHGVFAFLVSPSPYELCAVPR
The target in the next series is P-gp transporter (Homo sapiens (Human), UniProt P08183). Briefly: Bi-directional transport study in Caco-2 cells, inhibition of P-gp efflux of 3H-digoxin. In kind it is cell-based.
Chain of P-gp transporter (P08183 whole entry): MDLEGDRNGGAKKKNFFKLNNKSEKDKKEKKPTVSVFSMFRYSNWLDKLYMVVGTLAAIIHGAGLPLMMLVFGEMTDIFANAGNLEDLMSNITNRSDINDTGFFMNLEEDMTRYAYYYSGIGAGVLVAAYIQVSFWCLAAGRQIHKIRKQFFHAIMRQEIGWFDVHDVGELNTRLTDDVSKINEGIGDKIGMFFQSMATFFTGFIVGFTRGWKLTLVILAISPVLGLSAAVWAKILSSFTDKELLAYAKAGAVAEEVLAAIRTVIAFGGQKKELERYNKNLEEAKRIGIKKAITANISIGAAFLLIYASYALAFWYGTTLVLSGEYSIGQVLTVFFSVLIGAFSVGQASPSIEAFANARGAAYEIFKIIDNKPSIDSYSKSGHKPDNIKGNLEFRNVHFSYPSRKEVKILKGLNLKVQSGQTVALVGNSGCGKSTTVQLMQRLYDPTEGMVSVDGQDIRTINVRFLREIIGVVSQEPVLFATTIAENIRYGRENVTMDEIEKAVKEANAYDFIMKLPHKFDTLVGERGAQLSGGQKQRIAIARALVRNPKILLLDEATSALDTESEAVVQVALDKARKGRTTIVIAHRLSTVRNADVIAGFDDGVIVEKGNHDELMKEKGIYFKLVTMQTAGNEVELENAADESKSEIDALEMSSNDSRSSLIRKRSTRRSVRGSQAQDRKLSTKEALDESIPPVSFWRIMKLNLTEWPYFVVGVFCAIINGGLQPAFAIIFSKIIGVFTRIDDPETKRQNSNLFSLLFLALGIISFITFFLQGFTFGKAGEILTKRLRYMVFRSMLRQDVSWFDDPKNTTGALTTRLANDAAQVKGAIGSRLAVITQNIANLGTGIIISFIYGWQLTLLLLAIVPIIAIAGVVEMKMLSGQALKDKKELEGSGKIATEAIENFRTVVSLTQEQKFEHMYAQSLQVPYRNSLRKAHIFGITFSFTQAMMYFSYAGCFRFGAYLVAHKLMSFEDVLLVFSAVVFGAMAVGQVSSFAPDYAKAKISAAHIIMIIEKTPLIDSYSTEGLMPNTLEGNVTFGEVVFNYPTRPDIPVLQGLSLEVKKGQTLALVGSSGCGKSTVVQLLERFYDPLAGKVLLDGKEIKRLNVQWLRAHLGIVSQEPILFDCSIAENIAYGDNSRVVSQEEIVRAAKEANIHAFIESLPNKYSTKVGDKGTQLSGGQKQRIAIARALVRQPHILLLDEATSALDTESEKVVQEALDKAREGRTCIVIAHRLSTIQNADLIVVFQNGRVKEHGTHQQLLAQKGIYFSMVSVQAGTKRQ
In another series the test system is CYP3A4/5. Briefly: CYP inhibition in human liver microsomes (midazolam). In kind it is in vitro ADME. As to conditions: midazolam substrate, read-out: CYP inhibition IC50 3A-M. Here is the method:
as §1

For another series, the target named is CYP2C19 (Homo sapiens (Human), UniProt P33261). The series can be described thus: CYP inhibition in human liver microsomes (S-mephenytoin). Particulars: read-out: CYP inhibition IC50 2C19. Type of series: in vitro ADME. Here is the method: as §1
Chain of CYP2C19 (P33261 whole entry): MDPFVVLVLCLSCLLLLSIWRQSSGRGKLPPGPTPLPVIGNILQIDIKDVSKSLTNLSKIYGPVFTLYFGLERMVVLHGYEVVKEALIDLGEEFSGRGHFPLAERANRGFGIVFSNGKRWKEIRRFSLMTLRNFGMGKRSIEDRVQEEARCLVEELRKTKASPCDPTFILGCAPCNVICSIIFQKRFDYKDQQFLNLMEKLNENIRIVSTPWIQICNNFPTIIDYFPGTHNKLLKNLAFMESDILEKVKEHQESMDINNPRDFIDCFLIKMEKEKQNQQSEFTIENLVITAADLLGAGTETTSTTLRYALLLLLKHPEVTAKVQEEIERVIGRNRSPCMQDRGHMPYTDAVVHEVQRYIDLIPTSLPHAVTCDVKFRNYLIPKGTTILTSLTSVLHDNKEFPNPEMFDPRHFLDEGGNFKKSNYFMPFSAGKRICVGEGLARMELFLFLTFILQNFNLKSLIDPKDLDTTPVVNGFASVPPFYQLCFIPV
In a further series the target is CYP1A2 (Homo sapiens (Human), UniProt P05177). Briefly: CYP inhibition in human liver microsomes (phenacetin). In kind it is in vitro ADME. Particulars: read-out: CYP inhibition IC50 1A2. Here is the method: as §1
Chain of CYP1A2 (P05177 whole entry): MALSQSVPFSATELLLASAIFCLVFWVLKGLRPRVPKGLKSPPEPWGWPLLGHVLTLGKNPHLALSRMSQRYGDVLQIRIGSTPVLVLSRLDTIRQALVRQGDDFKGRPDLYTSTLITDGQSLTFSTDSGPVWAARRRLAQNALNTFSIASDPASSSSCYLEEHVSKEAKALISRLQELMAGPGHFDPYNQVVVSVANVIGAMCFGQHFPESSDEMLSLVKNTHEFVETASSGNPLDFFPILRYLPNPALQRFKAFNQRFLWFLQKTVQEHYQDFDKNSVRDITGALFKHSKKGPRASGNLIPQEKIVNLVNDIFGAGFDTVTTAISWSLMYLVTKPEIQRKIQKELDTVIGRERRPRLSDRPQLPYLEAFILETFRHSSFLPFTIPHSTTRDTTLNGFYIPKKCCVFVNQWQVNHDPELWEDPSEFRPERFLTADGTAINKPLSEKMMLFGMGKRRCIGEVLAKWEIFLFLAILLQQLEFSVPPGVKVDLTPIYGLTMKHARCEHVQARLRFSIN
The mark [2] stands for this setting: read-out: IC50 on BCRP efflux transporter, Caco-2 cells, substrate 3H-Estrone-3-sulfate (26 nM).
Setting [3] is: Sprague-Dawley, rat, plasma, IV-JVC, 2 mg/kg.
The mark [4] stands for this setting: Sprague-Dawley, rat, plasma, PO-JVC, 20 mg/kg.

pIC50: −log10 of the molar value. Where two headings read alike, the source gives them in different places.

Chain of BCRP efflux transporter (Q9UNQ0 whole entry): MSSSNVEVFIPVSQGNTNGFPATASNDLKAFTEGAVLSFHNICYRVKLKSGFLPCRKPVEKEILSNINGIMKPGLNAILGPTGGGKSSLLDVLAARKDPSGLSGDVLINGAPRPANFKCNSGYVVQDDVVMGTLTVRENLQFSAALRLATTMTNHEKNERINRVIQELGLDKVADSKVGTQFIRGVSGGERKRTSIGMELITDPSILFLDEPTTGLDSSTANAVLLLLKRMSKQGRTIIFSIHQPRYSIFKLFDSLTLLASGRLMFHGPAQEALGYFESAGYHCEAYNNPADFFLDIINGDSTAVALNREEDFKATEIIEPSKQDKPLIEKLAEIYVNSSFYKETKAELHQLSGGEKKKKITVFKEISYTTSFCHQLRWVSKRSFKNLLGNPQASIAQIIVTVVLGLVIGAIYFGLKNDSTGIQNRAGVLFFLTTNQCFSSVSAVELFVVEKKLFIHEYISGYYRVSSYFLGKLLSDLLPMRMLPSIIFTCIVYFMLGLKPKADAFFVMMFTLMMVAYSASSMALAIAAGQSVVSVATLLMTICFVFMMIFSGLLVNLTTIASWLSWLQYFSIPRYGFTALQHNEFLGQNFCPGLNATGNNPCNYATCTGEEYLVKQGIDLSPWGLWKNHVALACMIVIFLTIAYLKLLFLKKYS

Consider `COc1ccc2c3c([nH]c2c1)[C@H](CC(C)C)N1C(=O)[C@H](C)NC(=O)[C@H]1C3` [Compound 4, (3S,6S,12aR)-6-isobutyl-9-methoxy-3-methyl-2,3,6,7,12,12a-hexahydropyrazino[1′,2′:1,6]pyrido[3,4-b]indole-1,4-dione], for which the pIC50 on BCRP efflux transporter (setting [2]) was less than 5.00.
Still for that read-out and setting: the value for `COc1cc2[nH]c3c(c2cc1OC)C[C@H]1C(=O)N[C@@H](C)C(=O)N1[C@H]3CC(C)C` [Compound 8, (3S,6S,12aS)-6-isobutyl-9,10-dimethoxy-3-methyl-2,3,6,7,12,12a-hexahydropyrazino[1′,2′:1,6]pyrido[3,4-b]indole-1,4-dione] was less than 5.00.
In the case of `COc1cc2[nH]c3c(c2cc1OC)C[C@@H]1C(=O)N[C@@H](C)C(=O)N1[C@H]3CC(C)C` [Compound 8A, (3S,6S,12aR)-6-isobutyl-9,10-dimethoxy-3-methyl-2,3,6,7,12,12a-hexahydropyrazino[1′,2′:1,6]pyrido[3,4-b]indole-1,4-dione], at BCRP efflux transporter, the pIC50 is less than 5.00.
Turning to `COc1cc2[nH]c3c(c2cc1C)C[C@H]1C(=O)N[C@@H](C)C(=O)N1[C@H]3CC(C)C` [Compound 12, (3S,6S,12aS)-6-isobutyl-9-methoxy-3,10-dimethyl-2,3,6,7,12,12a-hexahydropyrazino[1′,2′:1,6]pyrido[3,4-b]indole-1,4-dione], the pIC50 at BCRP efflux transporter (setting [2]) is 5.70.
With `COc1cc2[nH]c3c(c2cc1C)C[C@@H]1C(=O)N[C@@H](C)C(=O)N1[C@H]3CC(C)C` [Compound 12A, (3S,6S,12aR)-6-isobutyl-9-methoxy-3,10-dimethyl-2,3,6,7,12,12a-hexahydropyrazino[1′,2′:1,6]pyrido[3,4-b]indole-1,4-dione], on BCRP efflux transporter (setting [2]), the pIC50 was less than 5.00.
Take `COc1ccc2c3c([nH]c2c1)[C@H](CC(C)C)N1C(=O)[C@H](C)NC(=O)[C@@H]1C3` [Compound (I-1), (3S,6S,12aS)-6-isobutyl-9-methoxy-3-methyl-2,3,6,7,12,12a-hexahydropyrazino[1′,2′:1,6]pyrido[3,4-b]indole-1,4-dione]: in series [1], the “Bioavailability (in words)” value is reported as “high bioavailability”. The “Clearance (in words)” value in series [1] is on record as “low clearance”. In addition, the CL in series [1] (IV-JVC, 2 mg/kg) is 1.54 L/h/kg. In addition, the Vss in [1] (IV-JVC, 2 mg/kg) is 1.64 L/kg. In addition, the Tmax in series [1] (PO-JVC, 20 mg/kg) was found to be 1.3 h. The AUC in series [1] (setting [3]) was found to be 4 µM·h; in series [1] (setting [4]), 49 µM·h. The half-life in [1] (setting [3]) is 54 min; in series [1] (setting [4]), 120 min. This molecule showed a Cmax in series [1] (setting [4]) of 10.1 µM. The bioavailability in series [1] (setting [4]) was determined as 123%. Further, the pIC50 on CYP2C8 is less than 4.52; on CYP2C9, less than 4.52; on CYP2D6 it was less than 4.52; on P-gp transporter (Caco-2 cells, substrate 3H-digoxin), less than 4.52; at CYP2C19, 4.73; on CYP1A2 it was 4.81. Moreover, at BCRP efflux transporter (setting [2]), the pIC50 is 6.22. Moreover, the “Selectivity for BCRP over P-gp” value at P-gp transporter (conclusion from Table 2) is listed as “selective BCRP inhibitor”. Moreover, the IC50 at 12 min in the series with CYP3A4/5 (pH 7.4, probe midazolam) is greater than 30 µM.
`CC(C)C[C@H]1c2[nH]c3ccccc3c2C[C@H]2C(=O)N[C@@H](CCC(=O)OC(C)(C)C)C(=O)N21` [Ko134, reference compound] gave a pIC50 against BCRP efflux transporter of 5.49.
On to `COc1ccc2c3c([nH]c2c1)[C@H](CC(C)C)N1C(=O)[C@H](CCC(=O)OC(C)(C)C)NC(=O)[C@@H]1C3` [Ko143, reference compound], for which the AUC0-24 hr in series [1] (IV-JVC, 2 mg/kg) came to 85.6 nmol·h/L; in series [1] (PO-JVC, 50 mg/kg) it was 72.2 nmol·h/L. Also, the CL in [1] (IV-JVC, 2 mg/kg) was found to be 65.9 L/h/kg. Further, the T1/2 in series [1] (IV-JVC, 2 mg/kg) was determined as 12 min. Moreover, the Vss in series [1] (IV-JVC, 2 mg/kg) is 14.8 L/kg. Moreover, the Cmax in series [1] (PO-JVC, 50 mg/kg) was 0.0214 µM. Further, the F % in series [1] (PO-JVC, 50 mg/kg) was 3%. Moreover, the Tmax in series [1] (PO-JVC, 50 mg/kg) came out at 2 h. Besides, the pIC50 is less than 4.52 at CYP2C8; 5.22 at CYP2C9; less than 4.52 at CYP2D6; less than 4.52 with CYP3A4/5; 4.83 at CYP2C19; 4.76 on CYP1A2.
